# Source: US10206398B2, “Five-membered C-N-attached aryl sulphide and aryl sulphoxide derivatives as pesticides” (BAYER CROPSCIENCE AKTIENGESELLSCHAFT, priority 2014, dated 2019)
# “And” between values parts separate entries of the source, which are not always exact repeats. Equal entries are not always repeated. Where two headings read alike, the source gives them in different places.
# How the values were obtained:
# [1] = log P determination by HPLC on reversed-phase columns (C 18), analogous to OECD Guideline 117; type: physicochemical; settings: for logP[a]: method [a]; for logP[b]: method [b]; for chromatographic logP: reversed-phase HPLC column (C 18)
# Protocol: The log P values were determined analogously to OECD Guideline 117 (EC Directive 92/69/EEC) by HPLC (high-performance liquid chromatography) using reversed-phase columns (C 18), by the following methods: [a] The LC-MS determination in the acidic range was effected at pH 2.7 with 0.1% aqueous formic acid and acetonitrile (contains 0.1% formic acid) as eluents; linear gradient from 10% acetonitrile to 95% acetonitrile. log P[a] is also referred to as log P(HCOOH). [b] LC-MS determination in the neutral range was effected at pH 7.8 with 0.001 molar aqueous ammonium hydrogencarbonate solution and acetonitrile as eluents; linear gradient from 10% acetonitrile to 95% acetonitrile. log P[b] is also referred to as log P(neutral). Calibration is effected with solutions of a homologous series of unbranched alkan-2-ones (having 3 to 16 carbon atoms) with known log P values (log P values determined on the basis of the retention times by linear interpolation between two successive alkanones).
# [2] = test system: Boophilus microplus; test: Boophilus microplus - injection test; type: in vivo; settings: 20 μg/animal, injection into engorged adult female cattle ticks, assessed after 7 days
# Protocol: 1. Boophilus microplus—Injection Test
# Solvent: dimethyl sulphoxide
# To produce a suitable preparation of active compound, 10 mg of active compound are mixed with 0.5 ml of solvent and the concentrate is diluted with solvent to the desired concentration.
# 1 μl of the active compound solution is injected into the abdomen of 5 engorged adult female cattle ticks (Boophilus microplus). The animals are transferred into dishes and kept in a climate-controlled room.
# Efficacy is assessed after 7 days by laying of fertile eggs. Eggs which are not visibly fertile are stored in a climate-controlled cabinet until the larvae hatch after about 42 days. An efficacy of 100% means that none of the ticks has laid any fertile eggs; 0% means that all the eggs are fertile.
# [3] = test system: Tetranychus urticae; test: Tetranychus urticae - spray test, OP-resistant (bean leaf discs, 6 days); type: in vivo; settings: 500 g/ha, after 6 days; for pest or weed control at 500 g/ha: Tetranychus urticae, foliar, 144 h, read-out: efficacy (spider mites killed)
# Protocol: 5. Tetranychus urticae—Spray Test, OP-Resistant
# Solvent: 78.0 parts by weight of acetone
# • 1.5 parts by weight of dimethylformamide Emulsifier: alkylaryl polyglycol ether
# To produce a suitable preparation of active compound, 1 part by weight of active compound is dissolved using the stated parts by weight of solvent and made up with water containing an emulsifier concentration of 1000 ppm until the desired concentration is attained. To produce further test concentrations, the preparation is diluted with emulsifier-containing water.
# Discs of bean leaves (Phaseolus vulgaris) infested with all stages of the greenhouse red spider mite (Tetranychus urticae) are sprayed with an active compound preparation of the desired concentration.
# After 6 days, the efficacy in % is determined. 100% means that all the spider mites have been killed; 0% means that no spider mites have been killed.
# [4] = test system: Meloidogyne incognita; test: Meloidogyne incognita - test; type: in vivo; settings: 20 ppm, lettuce, after 14 days
# Protocol: 2. Meloidogyne incognita—Test Solvent: 125.0 parts by weight of acetone To produce a suitable preparation of active compound, 1 part by weight of active compound is mixed with the stated amount of solvent and the concentrate is diluted with water to the desired concentration. Vessels are filled with sand, active compound solution, an egg/larvae suspension of the southern root-knot nematode (Meloidogyne incognita) and lettuce seeds. The lettuce seeds germinate and the plants develop. The galls develop on the roots. After 14 days, the nematicidal efficacy in % is determined by the formation of galls. 100% means that no galls were found; 0% means that the number of galls on the treated plants corresponds to the untreated control.
# [5] = pH 2.7, HPLC, acidic range, pH 2.7, 0.1% aqueous formic acid and acetonitrile, read-out: log P(HCOOH)
# [6] = pH 2.7, method [a], read-out: logP[a]
# [7] = pH 7.8, HPLC, neutral range, pH 7.8, 0.001 molar aqueous ammonium hydrogencarbonate and acetonitrile, read-out: log P(neutral)
# [8] = pH 7.8, method [b], read-out: logP[b]
Compound,logP[a] [1],logP[b] [1],efficacy (laying of fertile eggs) [2] [%],efficacy (spider mites killed) [3],nematicidal efficacy (formation of galls) [4] [%],"chromatographic logP [1, 5]","chromatographic logP [1, 6]","chromatographic logP [1, 7]","chromatographic logP [1, 8]",pest or weed control at 500 g/ha [3] [%]
Cc1cc(F)c(N2C(=O)C(C)N(C(=O)NCC(C)C)C2=O)cc1[S+]([O-])CC(F)(F)F (mixture of isomers) [compound 89],3.10,3.02,100,100%,,,,,,
Cc1cc(F)c(N2C(=O)C(C)N(C(=O)NC3CC3)C2=O)cc1[S+]([O-])CC(F)(F)F (stereo not shown) [compound 28],2.46,2.42,100,100%,,,,,,
Cc1cc(F)c(N2C(=O)CN(C(=O)N(C)C3CC3)C2=O)cc1SCC(F)(F)F [compound 121],2.99,3.03,,100%,90,,,,,
"Cc1cc(F)c(N2C(=O)CN(C(=O)N3CCOCC3)C2=O)cc1SCC(F)(F)F [Ex. No. 122, 3-[2-Fluoro-4-methyl-5-(2,2,2-trifluoroethylsulphanyl)phenyl]-1-(morpholine-4-carbonyl)imidazolidine-2,4-dione]",,,,,90,2.61,2.58,2.58,2.62,100
Cc1cc(F)c(N2C(=O)CN(C(=O)N(C)C3CC3)C2=O)cc1[S+]([O-])CC(F)(F)F (stereo not shown) [compound 131],2.08,2.16,,100%,100,,,,,
Cc1cc(F)c(N2C(=O)CN(C(=O)Nc3cccnc3)C2=O)cc1[S+]([O-])CC(F)(F)F (stereo not shown) [compound 20],1.51,1.98,,100%,100,,,,,
Cc1cc(F)c(N2C(=O)CN(C(=O)N3CCS(=O)(=O)CC3)C2=O)cc1SCC(F)(F)F [compound 128],2.4,2.44,,,100,,,,,
O=C(Nc1ccc(F)cc1)N1CC(=O)N(c2cc(SCC(F)(F)F)c(Cl)cc2Cl)C1=O [compound 108],4.09,4.20,,100%,90,,,,,
Cc1cc(F)c(N2C(=O)CN(C(=O)Nc3ccccn3)C2=O)cc1SCC(F)(F)F [compound 78],3.37,3.29,,100%,100,,,,,
"Cc1cc(F)c(N2C(=O)CN(C(=O)N3CCOCC3)C2=O)cc1[S+]([O-])CC(F)(F)F (stereo not shown) [Ex. No. 125, 3-[2-Fluoro-4-methyl-5-(2,2,2-trifluoroethylsulphinyl)phenyl]-1-(morpholine-4-carbonyl)imidazolidine-2,4-dione]",,,,,100,1.79,1.75,1.75,1.79,100
Cc1cc(F)c(N2C(=O)CN(C(=O)N(C)CC(C)C)C2=O)cc1[S+]([O-])CC(F)(F)F (stereo not shown) [compound 126],2.6,2.66,,100%,100,,,,,
Cc1cc(F)c(N2C(=O)CN(C(=O)N3CCC(F)(F)CC3)C2=O)cc1[S+]([O-])CC(F)(F)F (stereo not shown) [compound 132],2.41,2.46,,90%,100,,,,,
Cc1cc(Cl)c(N2C(=O)CN(C(=O)NC3CC3)C2=O)cc1SCC(F)(F)F [compound 50],3.29,3.19,,100%,90,,,,,
CCNC(=O)N1CC(=O)N(c2cc(SCC(F)(F)F)c(Cl)cc2Cl)C1=O [compound 103],3.25,3.26,,90%,90,,,,,
Cc1cc(C)c([S+]([O-])CC(F)(F)F)cc1N1C(=O)CN(C(=O)NC(C)(C)C)C1=O (stereo not shown) [compound 40],2.90,2.83,,100%,,,,,,
Cc1cc(F)c(N2C(=O)CN(C(=O)N3CCC(F)(F)CC3)C2=O)cc1SCC(F)(F)F [compound 129],3.27,3.29,,100%,100,,,,,

Compound,logP[a] [1],logP[b] [1],efficacy (laying of fertile eggs) [2] [%],efficacy (spider mites killed) [3],nematicidal efficacy (formation of galls) [4] [%],"chromatographic logP [1, 5]","chromatographic logP [1, 6]","chromatographic logP [1, 7]","chromatographic logP [1, 8]",pest or weed control at 500 g/ha [3] [%]
COCCNC(=O)N1CC(=O)N(c2cc(SCC(F)(F)F)c(C)cc2F)C1=O [compound 66],2.77,2.76,,100%,,,,,,
O=C(NC1CC1)N1CC(=O)N(c2cc([S+]([O-])CC(F)(F)F)c(Cl)cc2Cl)C1=O (racemic) [compound 112],2.61,2.65,,100%,,,,,,
Cc1cc(F)c(N2C(=O)N(C(=O)NCC(C)C)C(C)(C)C2=O)cc1SCC(F)(F)F [compound 76],4.51,4.42,,100% and 90%,,,,,,
CC(C)CNC(=O)N1CC(=O)N(c2cc([S+]([O-])CC(F)(F)F)c(Cl)cc2Cl)C1=O (racemic) [compound 113],3.21,3.28,,100%,,,,,,
Cc1cc(Cl)c(N2C(=O)CN(C(=O)NCC(C)C)C2=O)cc1SCC(F)(F)F [compound 52],3.93,3.78,,100%,,,,,,
Cc1cc(F)c(N2C(=O)CN(C(=O)N(C)C)C2=O)cc1SCC(F)(F)F [compound 130],2.58,2.60,,100% and 90%,100,,,,,
Cc1cc(C)c(N2C(=O)CN(C(=O)Nc3cccc(CC(F)(F)F)c3)C2=O)cc1SCC(F)(F)F [compound 55],4.43,4.35,,90%,,,,,,
Cc1cc(Cl)c(N2C(=O)CN(C(=O)NCc3ccccc3)C2=O)cc1[S+]([O-])CC(F)(F)F (racemic) [compound 70],2.95,2.91,,100%,,,,,,
CCNC(=O)N1CC(=O)N(c2cc([S+]([O-])CC(F)(F)F)c(Cl)cc2Cl)C1=O (racemic) [compound 111],2.56,2.59,,100%,,,,,,
Cc1cc(Cl)c(N2C(=O)CN(C(=O)Nc3cccc(CC(F)(F)F)c3)C2=O)cc1SCC(F)(F)F [compound 58],4.51,4.38,,100%,,,,,,
Cc1cc(F)c(N2C(=O)C(C)N(C(=O)NCc3ccccc3)C2=O)cc1SCC(F)(F)F (racemic) [compound 81],3.94,3.91,,100%,,,,,,
Cc1cc(F)c(N2C(=O)CN(C(=O)NCC3CCCO3)C2=O)cc1SCC(F)(F)F (racemic) [compound 67],2.99,2.98,,100%,,,,,,
Cc1cc(F)c(N2C(=O)CN(C(=O)Nc3ccccc3)C2=O)cc1[S+]([O-])CC(F)(F)F (stereo not shown) [compound 19],2.89,2.83,,90%,,,,,,
O=C(Nc1cccc(C(F)(F)F)c1)N1CC(=O)N(c2cc([S+]([O-])CC(F)(F)F)c(Cl)cc2Cl)C1=O (racemic) [compound 120],3.92,4.02,,100%,,,,,,
Cc1cc(F)c(N2C(=O)CN(C(=O)N3CCN(C)CC3)C2=O)cc1SCC(F)(F)F [compound 123],2.5,1.51,,100%,,,,,,
